Consider five compounds from US20180296561A1, “The Methods For Treatment Of Tumors” (The University of North Carolina at Chapel Hill, priority 2015, published 2018).

Assay [1] has as its system monocytes and macrophages that expressed MerTK. The note with it: addition of UNC569; cited from earlier work.
In a further assay the test system is melanoma cells. Particulars: cited from earlier work.
Another assay concerns melanoma. Particulars: melanoma mouse model, therapeutic doses; cited from earlier work.
Assay [2] has as its system non-small cell lung cancer (NSCLC) and acute myeloid leukemia (AML) tumor cell lines. The note with it: cited from earlier work.
The test system of the next assay is Colon26 tumor cells. Put plainly: Colon26 syngeneic colon carcinoma model: tumor volume, time to endpoint, survival. Format: in vivo, Female BALB/c mice. Particulars: for median time to endpoint (TTE): endpoint 1000 mm^3 or 45 days; for tumor growth delay (TGD) / tumor growth delay (TGD), percent / mice remaining through day 15: alone or with the antibody in the label; for mice remaining through day 15: n=9. The protocol: Female BALB/c mice were injected with 5×10^5 Colon26 tumor cells in 0% Matrigel sc in flank. The cell injection volume was 0.1 mL/mouse. Mice were between 7 to 10 weeks at the start of the experiment. When tumors reached an average size of 80-120 mm^3, treatment was begun. Body weight was measured five times per week for the first two weeks and then twice per week to the end of the experiment. Tumor volume was measured by caliper measurement twice per week to the end of the experiment. […] Any group with a mean body weight loss of greater than 20% or greater than 10% mortality was stopped dosing. The group was not euthanized and recovery was allowed. Within a group with greater than 20% weight loss, individuals hitting the individual body weight loss endpoint were euthanized. The endpoint of the experiment was a tumor volume of 1000 mm^3 or 45 days, whichever endpoint came first. When the endpoint was reached, the mice were euthanized.
UNC2371 was prepared in salt form and the dosing solution was prepared every day. UNC2371 was prepared in deionized water. All doses represent total substance dosed by weight of compound (including salt weight). […] Dosing solution was prepared at 5 mL/kg (0.100 mL/20 g mouse) and volume was adjusted accordingly for body weight. Dosing solutions of anti-CTLA4 9H10 (BioXcell cat# BE0131) and anti-PD1 RMP1-14 (rat Ig—BioXcell cat# BE0146) were prepared in PBS every week, stored at 4° C., and protected from light. Dosing solution was prepared at 10 mL/kg (0.200 mL/20 g mouse) and volume was adjusted accordingly for body weight.
Mice were randomized into twelve different experimental groups. Group 1 received deionized water via oral gavage (p.o.) three times daily for twenty-one days, starting with two doses on Day 1 (tid×21 first day two doses) and PBS i.p. twice weekly for two weeks (biwk×2). Groups 2-4 received UNC2371 via oral gavage (p.o.) three times daily for twenty-one days, starting with two doses on Day 1 (tid×21 first day two doses). Dosing amounts for UNC2371 for Groups 2-4 were 1, 5 and 15 mg/kg, respectively. Group 5 received anti-PD1 mAb at a dosage of 5 mg/kg i.p. biwk×2. Group 6 received anti-CTLA4 mAb at a dosage of 5 mg/kg on Day 1 and at 2.5 mg/kg on Days 4 and 7. Groups 7-9 received UNC2371 (p.o. tid×21, first day two doses) at 1, 5 and 15 mg/kg, respectively, in combination with anti-PD1 (5 mg/kg i.p. biwk×2). Groups 10-12 received UNC2371 (p.o. tid×21, first day two doses) at 1, 5 and 15 mg/kg, respectively, in combination with anti-CTLA4 (5 mg/kg on Day 1 and at 2.5 mg/kg on Days 4 and 7).

Assay [3] relates to Colon26 murine colon carcinoma. Put plainly: Flow cytometry of immune cells in tumor and PBMCs, Colon26 model, Day 8. Format: in vivo, mouse. As for the experimental part: Tumor samples and blood samples were analyzed by flow cytometry to determine the effect of a MerTK inhibitor on immune cells alone or in combination with an immune checkpoint inhibitor in the Colon26 murine colon carcinoma mouse model. In the following example, the MerTK inhibitor UNC2371 was examined in combination with the immune checkpoint inhibitors anti-CTLA4 and anti-PD1. Experiments were performed as described in Example 3 above, except that mice in each group were euthanized at Day 8, and tumor tissue and blood samples were collected. Blood samples were collected by terminal cardiac puncture under isoflurane anesthesia. Blood was processed for peripheral blood monocyte cells (PBMCs; enriches the white cell population). Flow cytometry was conducted to identify specific white cell populations in both the PBMCs as well as the tumor cells. Tumor samples were preserved (single cell suspension) and maintained at −4° C.
(In general: In flow cytometry, cells or beads pass a laser one at a time.)

The subject of assay [4] is Colon26 murine colon carcinoma. Put plainly: Immunohistochemistry of Colon26 tumors (CD3, F4/80, survivin). Format: in vivo, mouse. As for the experimental part: Tumors from 2 to 3 mice per treatment group were formalin fixed and paraffin embedded. The samples were analyzed by immunohistochemistry for several biological markers (data not shown). T cells (cell marker=CD3) were increased in the 1 mg/kg UNC2371 (low dose) monotherapy arm and 1 mg/kg UNC2371/anti-CTLA4 combination treatment arm compared to vehicle. […] Macrophages (cell marker F4/80) were highest in group 6 (anti-CTLA4) and group 10 (UNC2371 1 mg/kg+anti-CTLA4) with similar staining seen in these two groups. […] Tumors were also analyzed for survivin staining.

The next assay has as its system B16 melanoma. Description: B16 melanoma mouse model with radiation therapy (XRT), secondary tumor. The assay is classed as in vivo. The protocol: MerTK ihibitors were analyzed in combination with immune checkpoint inhibitors in a B16 melanoma mouse model for their effect on secondary tumor growth in mice treated with radiation therapy (XRT). XRT is performed according to the following schematic:
Briefly, XRT (8 Gy) was given on days 9, 10, and 11. UNC2371 was given at a dose of 50 mg/kg, by oral gavage, qd, initiated at Day 8. Anti-PD1 was given at 200 μg IP on days 6, 9, and 12. Eight mice were analyzed in each treatment arm (XRT, MerTKi, anti-PD1, anti-PD1+MerTKi, XRT+MerTKi, XRT+anti-PD1, and XRT+anti-PD1+MerTKi). Tumors were implanted on both flanks, and the secondary tumor was shielded during XRT treatment. The secondary tumor was assessed for impact of abscopal effect.

Assay [5] concerns myeloid-derived suppressor cells (MDSCs). Description: mRNA expression in myeloid-derived suppressor cells from B16/F10 tumor-bearing mice. Format: in vivo, mouse. As for the experimental part: To evaluate the effect of MerTK inhibitors on myeloid-derived suppressor cells (MDSCs), C57BL/6 B16/F10 melanoma cells were implanted into syngeneic mice and tumors are allowed to form. Once tumors reached 5 mm in diameter, mice received either vehicle (0.9% NaCl) or 10, 25 or 50 mg/kg UNC2371 for 5 days. Initial experiments determined the lowest dose capable of altering the immune system. Myeloid-derived suppressor cells (MDSCs) were isolated from the spleens of tumor-bearing mice by fluorescence activated cell sorting using the cell surface markers CD11b^+Ly6G^−Ly6C^high and G-MDSCs by CD11b^+Ly6G^highLy6C^low. MDSCs' suppressive capabilities were assessed by the level of RNA for M2 capabilities.

For the next assay, the system named is AML. Particulars: cited from earlier work.

Regarding `CCCCNc1ncc2c(-c3ccc(F)cc3)nn(CC3CCC(N)CC3)c2n1` (stereo not drawn) [UNC569], the “production of inflammatory cytokines” value in [1] is given as “restored”.

Regarding `CCCCNc1ncc2c(-c3ccc(S(=O)(=O)N4CCOCC4)cc3)nn(C3CCC(O)CC3)c2n1` (stereo not drawn) [UNC1062], in the assay with melanoma cells, the “activation of MERTK-mediated downstream signaling” value is on record as “reduced”, the apoptosis in culture result was “induced”, the “colony formation in soft agar” value was “reduced” and the “invasion of melanoma cells” value is recorded as “inhibited”.

As to `CCCCNc1ncc2c(-c3ccc(CN4CCN(C)CC4)cc3)cn(C3CCC(O)CC3)c2n1` (stereo not drawn) [UNC2025A], the survival entry in the assay with melanoma is recorded as “survival advantage”. The colony formation entry in assay [2] is given as “can inhibit colony formation”.

As for `CN1CCN(Cc2ccc(-c3cn(C4CCC(O)CC4)c4nc(NCCC5CC5)ncc34)cc2)CC1` (stereo not drawn) [UNC2371], in the assay on Colon26 tumor cells (anti-CTLA4, anti-PD1 and low dose UNC2371 as single agents, FIGS. 16 to 18), the single agent efficacy result is given as “failed to demonstrate single agent efficacy”. In addition, the “median time to endpoint (TTE)” value in the assay on Colon26 tumor cells (high dose UNC2371 15 mg/kg TID p.o. x21, alone or with the antibody in the label) was 20.7 days; in the assay with Colon26 tumor cells (low dose UNC2371 1 mg/kg TID p.o. x21, alone or with the antibody in the label), 14.0 days; in the assay with Colon26 tumor cells (mid dose UNC2371 5 mg/kg TID p.o. x21, alone or with the antibody in the label) it was 16.7 days. The “tumor growth delay (TGD)” value in the assay with Colon26 tumor cells (high dose UNC2371 15 mg/kg TID) amounted to 6.9 days; in the assay with Colon26 tumor cells (low dose UNC2371 1 mg/kg TID) it was 0.2 days; with Colon26 tumor cells (mid dose UNC2371 5 mg/kg TID), 2.9 days. Also, the “tumor growth delay (TGD), percent” value in the assay on Colon26 tumor cells (high dose UNC2371 15 mg/kg TID) turned out to be 50%; with Colon26 tumor cells (low dose UNC2371 1 mg/kg TID), 1%; with Colon26 tumor cells (mid dose UNC2371 5 mg/kg TID), 21%. Besides, the “mice remaining through day 15” value with Colon26 tumor cells (high dose UNC2371 15 mg/kg TID) is given as 8/9; with Colon26 tumor cells (low dose UNC2371 1 mg/kg TID) it was 3/9; in the assay with Colon26 tumor cells (mid dose UNC2371 5 mg/kg TID), 6/9. In addition, the “CD8+ cells in the tumor” value in assay [3] (Day 8, FIG. 19, combination: low dose or medium dose UNC2371) is recorded as “increase”. In addition, the “Natural Killer (NK) cells in the tumor” value in assay [3] (Day 8, FIG. 20) is given as “increase”. For the same compound, in [4], the “T cell (CD3 marker) penetration into the core of the tumor” value is “notable increase”. In assay [4] (1 mg/kg UNC2371 (low dose)), the “T cells (cell marker CD3) in tumor compared to vehicle” value was “increased”. In addition, in [4] (low dose 1 mg/kg UNC2371), the survivin staining result was “markedly decreased staining”. In the assay on B16 melanoma (UNC2371 50 mg/kg oral gavage qd from Day 8, anti-PD1 200 μg IP days 6, 9, 12, FIG. 22A), the “secondary tumor volume compared with XRT alone” value is given as “more effective than XRT alone”. In addition, the “tumor derived myeloid-derived suppressor cells (MDSCs)” value with B16 melanoma (XRT+UNC2371 vs XRT, FIG. 22C) is “decrease”. Besides, the “abscopal effect on the secondary tumor” value with B16 melanoma (with XRT 8 Gy days 9, 10, 11, UNC2371 50 mg/kg qd, anti-PD1 200 μg IP, FIG. 22B) is “enhanced the abscopal effect”. The “arginase mRNA expression” value in assay [5] (25 mg/kg UNC2371 for 5 days vs vehicle control) was “decrease”. Further, the “iNOS (inducible nitric oxide synthase) mRNA expression” value in assay [5] (10, 25, or 50 mg/kg UNC2371 for 5 days vs vehicle control) is given as “decrease”. In addition, in assay [5] (10 or 25 mg/kg UNC2371 for 5 days vs vehicle control), the “IDO (indoleamine 2,3-dioxygenase) mRNA expression” value is on record as “decrease”.

As to `CCCCNc1ncc2c(-c3ccc(S(=O)(=O)N4CCOCC4)cc3)cn(C3CCC(O)CC3)c2n1` (stereo not drawn) [UNC 1666], in the assay on AML, the “myeloid survival in AML” value was “decreases” and the “oncogenic signaling in AML” value is “decreases”.
